Experimental data taken from patent US10667517B2, “2-(Het)aryl-substituted fused heterocycle derivatives as pesticides” (BAYER CROPSCIENCE AKTIENGESELLSCHSAFT, priority 2015, dated 2020).

What was measured:
Phaedon cochleariae = Phaedon cochleariae - spray test; assay type: in vivo; details: application rate 500 g/ha, mustard beetle larvae on Chinese cabbage leaf discs, after 7 days; for pest or weed control at 500 g/ha: Phaedon cochleariae, foliar, 168 h, read-out: efficacy
Procedure: Phaedon cochleariae—Spray Test
(§1) • Solvent: 78.0 parts by weight of acetone • 1.5 parts by weight of dimethylformamide • Emulsifier: alkylaryl polyglycol ether
(§2) To produce a suitable active compound preparation, 1 part by weight of active compound is dissolved with the stated parts by weight of solvent and made up with water containing an emulsifier concentration of 1000 ppm until the desired concentration is attained. To produce further test concentrations, the preparation is diluted with emulsifier-containing water.
After 7 days, the efficacy in % is determined. 100% means that all the beetle larvae have been killed; 0% means that no beetle larvae have been killed.

Meloidogyne incognita = Meloidogyne incognita test; assay type: in vivo; details: application rate 20 ppm; egg/larvae suspension with lettuce seeds in sand; formation of galls after 14 days
Procedure: Meloidogyne incognita Test • Solvent: 125.0 parts by weight of acetone To produce a suitable preparation of active compound, 1 part by weight of active compound is mixed with the stated amount of solvent and the concentrate is diluted with water to the desired concentration. Vessels are filled with sand, active compound solution, an egg/larvae suspension of the southern root-knot nematode (Meloidogyne incognita) and lettuce seeds. The lettuce seeds germinate and the plants develop. The galls develop on the roots. After 14 days, the nematicidal efficacy in % is determined by the formation of galls. 100% means that no galls were found; 0% means that the number of galls on the treated plants corresponds to the untreated control.

[1] = log P (neutral), HPLC on reversed-phase column (C 18), LC-MS neutral range; assay type: physicochemical; details: pH 7.8, ammonium hydrogencarbonate/acetonitrile; for log P (neutral): HPLC reversed-phase C 18, 55° C.; for chromatographic logP: reversed-phase HPLC column (C 18), pH 7.8, HPLC reversed-phase C 18, 55° C.
Procedure: Temperature: 55° C. […] Called log P (neutral) in the table.

Myzus persicae = Myzus persicae - spray test; assay type: in vivo; details: application rate 500 g/ha; all stages of green peach aphid on Chinese cabbage leaf discs; after 5-6 days
Procedure: Myzus persicae—Spray Test
• Solvent: 78 parts by weight of acetone • 1.5 parts by weight of dimethylformamide • Emulsifier: alkylaryl polyglycol ether
as §2
Discs of Chinese cabbage leaves (Brassica pekinensis) infested by all stages of the green peach aphid (Myzus persicae) are sprayed with an active compound preparation of the desired concentration.
After 5-6 days, the efficacy in % is determined. 100% means that all the aphids have been killed; 0% means that no aphids have been killed.

Ctenocephalides felis [2] = experiment: Ctenocephalides felis - in vitro contact tests with adult cat fleas; assay type: in vivo; details: application rate 5 μg/cm^2 (500 g/ha); adult cat fleas in coated tubes; after 48 h; dead or moribund
Procedure: Ctenocephalides felis—In Vitro Contact Tests with Adult Cat Fleas
(§3) For the coating of the test tubes, 9 mg of active compound are first dissolved in 1 ml of acetone p.a. and then diluted to the desired concentration with acetone p.a. 250 μl of the solution are distributed homogeneously on the inner walls and the base of a 25 ml test tube by turning and rocking on an orbital shaker (rocking rotation at 30 rpm for 2 h). With 900 ppm active compound solution and internal surface 44.7 cm^2, given homogeneous distribution, an area-based dose of 5 μg/cm^2 is achieved.
After the solvent has evaporated off, the tubes are populated with 5-10 adult cat fleas (Ctenocephalides felis), sealed with a perforated plastic lid and incubated in a horizontal position at room temperature and ambient humidity. After 48 h, efficacy is determined. To this end, the test tubes are stood upright and the fleas are knocked to the base of the tube. Fleas which remain motionless at the base or move in an uncoordinated manner are considered to be dead or moribund.
100% efficacy means that all the fleas were dead or moribund. 0% efficacy means that no fleas were harmed.

Lucilia cuprina = Lucilia cuprina test; assay type: in vivo; details: application rate 100 ppm; L1 larvae in minced horsemeat; after 2 days
Procedure: Lucilia cuprina Test • Solvent: dimethyl sulphoxide To produce a suitable active compound preparation, 10 mg of active compound are mixed with 0.5 ml of dimethyl sulphoxide, and the concentrate is diluted with water to the desired concentration. About 20 L1 larvae of the Australian sheep blowfly (Lucilia cuprina) are transferred into a test vessel containing minced horsemeat and the active compound preparation of the desired concentration. After 2 days, the kill in % is determined. 100% means that all the larvae have been killed; 0% means that no larvae have been killed.

Ctenocephalides felis [3] = experiment: Ctenocephalides felis - oral test; assay type: in vivo; details: application rate 100 ppm in citrated cattle blood; adult cat fleas; after 2 days
Procedure: Ctenocephalides felis—Oral Test • Solvent: dimethyl sulphoxide To produce a suitable active compound preparation, 10 mg of active compound are mixed with 0.5 ml of dimethyl sulphoxide. Dilution with citrated cattle blood gives the desired concentration. About 20 unfed adult cat fleas (Ctenocephalides felis) are placed into a chamber which is closed at the top and bottom with gauze. A metal cylinder whose bottom end is closed with parafilm is placed onto the chamber. The cylinder contains the blood/active compound preparation, which can be imbibed by the fleas through the parafilm membrane. After 2 days, the kill in % is determined. 100% means that all of the fleas have been killed; 0% means that none of the fleas have been killed.

Boophilus microplus = Boophilus microplus - injection test; assay type: in vivo; details: application rate 20 μg/animal; injected into engorged adult female cattle ticks; laying of fertile eggs after 7 days
Procedure: Boophilus microplus—Injection Test
• Solvent: dimethyl sulphoxide
To produce a suitable active compound preparation, 10 mg of active compound are mixed with 0.5 ml of solvent and the concentrate is diluted with solvent to the desired concentration. 1 μl of the active compound solution is injected into the abdomen of 5 engorged adult female cattle ticks (Boophilus microplus). The animals are transferred into dishes and kept in a climate-controlled room.
Efficacy is assessed after 7 days by laying of fertile eggs. Eggs which are not visibly fertile are stored in a climate-controlled cabinet until the larvae hatch after about 42 days. An efficacy of 100% means that none of the ticks has laid any fertile eggs; 0% means that all the eggs are fertile.

Spodoptera frugiperda = Spodoptera frugiperda - spray test; assay type: in vivo; details: application rate 500 g/ha; armyworm caterpillars on maize leaf discs; after 7 days
Procedure: Spodoptera frugiperda—Spray Test
as §1, §2
Leaf discs of maize (Zea mays) are sprayed with an active compound preparation of the desired concentration and, after drying, populated with caterpillars of the armyworm (Spodoptera frugiperda).
After 7 days, the efficacy in % is determined. 100% means that all the caterpillars have been killed; 0% means that no caterpillars have been killed.

Tetranychus urticae = Tetranychus urticae - spray test, OP-resistant; assay type: in vivo; details: application rate 500 g/ha; all stages of greenhouse red spider mite on bean leaf discs; after 6 days
Procedure: Tetranychus urticae—Spray Test, OP-Resistant
as §1, §2
Discs of bean leaves (Phaseolus vulgaris) infested with all stages of the greenhouse red spider mite (Tetranychus urticae) are sprayed with an active compound preparation of the desired concentration.
After 6 days, the efficacy in % is determined. 100% means that all the spider mites have been killed; 0% means that no spider mites have been killed.

Rhipicephalus sanguineus = Rhipicephalus sanguineus - in vitro contact tests with adult brown dog ticks; assay type: in vivo; details: application rate 5 μg/cm^2 (500 g/ha); adult brown dog ticks in coated tubes; after 48 h; dead or moribund
Procedure: Rhipicephalus sanguineus—In Vitro Contact Tests with Adult Brown Dog Ticks
as §3
After the solvent has evaporated off, the tubes are populated with 5-10 adult dog ticks (Rhipicephalus sanguineus), sealed with a perforated plastic lid and incubated in a horizontal position in the dark at room temperature and ambient humidity. After 48 h, efficacy is determined. To this end, the ticks are knocked to the base of the tube and incubated on a hotplate at 45-50° C. for not more than 5 min. Ticks which remain motionless on the base or move in such an uncoordinated manner that they are unable to deliberately avoid the heat by climbing upwards are considered to be dead or moribund.
An efficacy of 100% means that all the ticks were dead or moribund. 0% efficacy means that none of the ticks were harmed.

Musca domestica = Musca domestica test; assay type: in vivo; details: application rate 100 ppm; adult houseflies, sponge with sugar solution; after 2 days
Procedure: Musca domestica Test • Solvent: dimethyl sulphoxide To produce a suitable active compound preparation, 10 mg of active compound are mixed with 0.5 ml of dimethyl sulphoxide, and the concentrate is diluted with water to the desired concentration. Vessels containing a sponge treated with sugar solution and the active compound preparation of the desired concentration are populated with 10 adult houseflies (Musca domestica). After 2 days, the kill in % is determined. 100% means that all of the flies have been killed; 0% means that none of the flies have been killed.

log P (neutral) [1] | chromatographic logP [1] | SMILES | efficacy (Phaedon cochleariae) | nematicidal efficacy (Meloidogyne incognita) | efficacy (Myzus persicae) | efficacy (Ctenocephalides felis [2]) | efficacy (kill) (Lucilia cuprina) | efficacy (kill) (Ctenocephalides felis [3]) | efficacy (Boophilus microplus) | efficacy (Spodoptera frugiperda) | pest or weed control at 500 g/ha (Phaedon cochleariae) | efficacy (Tetranychus urticae) | efficacy (Rhipicephalus sanguineus) | efficacy (kill) (Musca domestica)
2.31 | – | CCS(=O)(=O)c1ccc(NC(=O)C(C)CS(C)(=O)=O)nc1-c1nc2cc(C(F)(F)F)cnc2n1C (stereo not shown) [Example I-21] | 100% | 90% | 90% | – | – | – | – | – | – | – | – | –
– | – | CCS(=O)(=O)c1ccc(-n2cncn2)nc1-c1nc2cc(C(F)(F)F)cnc2n1C [Example I-22] | 100% | – | 100% | 100% | 100% | 100% | 80% | 100% | – | – | – | –
– | 2.1 | CCS(=O)(=O)c1ccc(N)nc1-c1nc2cc3c(cc2n1C)OC(F)(F)O3 [Example I-8, 6-(2,2-Difluoro-7-methyl-[1,3]dioxolo[4,5-f]benzimidazol-6-yl)-5-ethylsulphonylpyridin-2-amine] | – | – | 90% | – | – | – | – | 100% | 100% | 90% | – | –
– | 2.02 | CCS(=O)(=O)c1ccc(N)nc1-c1nc2cc(C(F)(F)F)cnc2n1C [Example I-6, 5-(Ethylsulphonyl)-6-[3-methyl-6-(trifluoromethyl)-3H-imidazo[4,5-b]pyridin-2-yl]pyridin-2-amine] | – | 90% | 90% | – | – | – | – | – | 100% | – | – | –
2.00 | – | CCS(=O)(=O)c1ccc(NC(=O)C(F)(F)F)nc1-c1nc2cc(C(F)(F)F)cnc2n1C [Example I-15] | 100% | 90% | 100% | – | – | – | – | 83% | – | – | – | –
3.27 | – | CCS(=O)(=O)c1ccc(NC(=O)C(F)(F)F)nc1-c1nc2cc(C(F)(F)F)ccc2n1C [Example I-11] | 100% | – | 90% | 100% | 100% | 100% | – | – | – | – | 80% | –
– | 2.5 | CCS(=O)(=O)c1ccc(NC(C)=O)nc1-c1nc2cc(C(F)(F)F)ccc2n1C [Example I-2, N-{5-(Ethylsulphonyl)-6-[1-methyl-5-(trifluoromethyl)-1H-benzimidazol-2-yl]pyridin-2-yl}acetamide] | – | – | 100% | 100% | 100% | 95% | – | 100% | 100% | – | – | 90%
